# Reference: patent US9945845B2, “Methods of screening using amphibians” (priority 2009, dated 2018)
# Where two headings read alike, the source gives them in different places.
# What was measured:
# LEC [1] = experiment: LEC cell proliferation assay; type: cell-based, human; settings: 10 μM in 0.1% DMSO, 48 hours; for activity at 10 µM: Homo sapiens, 48 h, read-out: LEC proliferation
# Description: (§1) Human umbilical vein endothelial cells (HUVEC) were purchased from PromoCell. […] HUVEC and LEC were cultured in endothelial basal medium EBM (Cambrex) supplemented with 20% fetal bovine serum (Invitrogen), antibiotic-antimycotics (100 U/ml penicillin, 100 μg/ml streptomycin, 250 ng/ml amphotericin; Invitrogen). 2 mM L-glutamine (Invitrogen), 10 μg/ml hydrocortisone (Fluka) and 25 μg/ml N^6,2′-O-dibutyryladenosine 3′,5′-cyclic monophosphate sodium salt (Fluka) for up to eleven passages.
# (§2) The intensity of fluorescence, which is proportional to the number of viable cells, was measured using a microplate reader (SpectraMax Gemini EM; Molecular Devices). The chemical treatments were performed in five replicates.
# (§3) The cell proliferation assays were performed by treating the endothelial cell cultures with compounds at a screening dose of 10 μM in 0.1% DMSO for 48 hours (FIG. 6a; Table 10).
# LEC [2] = experiment: cells; type: cell-based, human; settings: 1 μM in 0.1% DMSO; for activity at 1 µM: Homo sapiens
# Description: as §1
# (§4) The effect of the selected chemicals on the formation of tube-like structures was performed as follows. […] After overnight incubation at 37° C. the treated cell cultures were fixed with 4% paraformaldehyde. Each chemical treatment was performed in triplicate and the experiment was repeated at least three times. Three representative images of hotspots with tube-like structures were taken per well using a digital camera (AxioCam MRm, Carl Zeiss) mounted on an inverted microscope (Axiovert 200M, Carl Zeiss). The length of the tube-like structures was measured using the IPLab software (BD Biosciences). For each experimental condition, results are represented as average total tube length (μm) per area (three image fields).
# (§5) The effects of the selected compounds on endothelial tube formation was assessed after over treatment of LEC and HUVEC cultures at a compound concentration of 1 μM in 0.1% DMSO. The length of the tube-like structures was measured using the IPLab software.
# [3] = tested on: blood vessel development and/or lymphangiogenesis in Xenopus embryos; type: in vivo, Xenopus laevis; settings: for ISV phenotype: intersomitic vessels; for PCV phenotype: posterior cardinal vein; for VVN phenotype: vitelline vein network; for blood vessel development phenotype (apj expression, in words): 20 μM from stage 31, fixed at stage 35/36; for lymph vessel development phenotype (vegfr3 expression, in words): 20 μM from stage 31, fixed at stage 42; for ALH phenotype: anterior lymph heart; for ALS phenotype: anterior lymph sac; for PLV phenotype: posterior lymph vessels
# Description: All chemicals were purchased from Sigma and 10-mM stock solutions in DMSO were prepared. Chemicals were used at a final concentration of 20 μM in screening medium to treat homozygous albino Xenopus embryos, which lack natural pigmentation. Chemical treatments of embryos (n=7 per well) was initiated at stage 31 (37 hpf) and terminated at stages 35/36 (50 hpf) or 42 (80 hpf). Embryos were fixed in 4% paraformaldehyde and processed for whole mount in situ hybridization.
# Where albino embryos were used, the bleaching step was omitted. Semi-automated whole mount in situ hybridizations were performed using the Biolane HTI machine (Hölle & Hüttner AG, Germany). […] Images were captured using a stereomicroscope (SteREO Lumar V12; Carl Zeiss) equipped with a digital camera (AxioCam Color; Carl Zeiss). Composite figures were organized and labeled using Adobe Photoshop CS2 and Adobe Illustrator CS software.
# Edema formation or late-stage lethality may result from excretory system defects, (cardio)vascular and/or lymphatic vascular pathologies. […] Embryos were fixed for in situ hybridization either at stage 35/36 to analyze vasculogenesis and intersomitic vein angiogenesis defects or at stage 42 to evaluate possible defects in lymph vessel development (FIGS. 3-5).
# Xenopus embryos = settings: for Lethality (NF) / Onset (NF) / edema or other phenotype in compound-treated Xenopus embryos/tadpoles (in words): 1% DMSO; for Embr. phen.: embryonic phenotype in the primary screen; for Lethality: — = no stage of lethality given; for Onset (NF): onset of edema
# In short: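 Stage 31 (37 hpf) Xenopus embryos, five per well, exposed to 20 µM compound in 1% DMSO at 23 °C for 4 days. Edema, lethality and other external phenotypes were scored daily by two investigators at stages 39, 41, 45 and 47.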
# HUVEC [4] = experiment: HUVEC cell proliferation assay; type: cell-based, human; settings: 10 μM in 0.1% DMSO, 48 hours; for activity at 10 µM: Homo sapiens, HUVEC, 48 h, read-out: HUVEC proliferation
# Description: as §1, §2, §3
# HUVEC [5] = experiment: HUVEC tube formation assay; type: cell-based, human; settings: 1 μM in 0.1% DMSO; for activity at 1 µM: Homo sapiens, HUVEC
# Description: as §1, §4, §5
# [6] = compounds causing edema, 20 μM, treatment from stage 31, scored to stage 47
# [7] = 20 μM, treatment from stage 31, Nieuwkoop & Faber stage
# [8] = overnight, read-out: LEC tube formation
# [9] = read-out: LEC tube formation (tube length)
# [10] = overnight, read-out: HUVEC tube formation
# [11] = read-out: HUVEC tube formation (tube length)
# [12] = compounds causing lethality, 20 μM, treatment from stage 31, Nieuwkoop & Faber stage
Structure (SMILES),LEC proliferation (LEC [1]),LEC tube formation (LEC [2]; overnight),ISV phenotype ([3]; Xenopus embryos),PCV phenotype ([3]; Xenopus embryos),VVN phenotype ([3]; Xenopus embryos),Lethality (NF) (Xenopus embryos; [6]),Embr. phen. (Xenopus embryos),Type of edema Pericordial (Xenopus embryos; embryonic stage),Lethality (Xenopus embryos; embryonic stage),Onset (NF) (Xenopus embryos; [7]),HUVEC proliferation (HUVEC [4]),HUVEC tube formation (HUVEC [5]; overnight),"blood vessel development phenotype (apj expression, in words) [3]","lymph vessel development phenotype (vegfr3 expression, in words) [3]",ALH phenotype ([3]; Xenopus embryos),ALS phenotype ([3]; Xenopus embryos),PLV phenotype ([3]; Xenopus embryos),activity at 10 µM (LEC [1]),activity at 1 µM (LEC [2]; [8]),activity at 1 µM (LEC [2]; [9]),other results
"COc1cc2c(cc1O)CC[C@@H]1[C@@H]2CC[C@]2(C)[C@@H](O)CC[C@@H]12 [2-methoxyestradiol, 2-Hydroxyestradiol 2-methyl ether]","− (−, moderate inhibition (50-85% of control):)","− (−, moderate inhibition (50-85% of control):)",impaired,hypoplastic,hypoplastic,33/34,EDE,33/34,33/34,33/34,"O (O, inactive or marginal effects (85-115% of control);)","− − (− −, strong inhibition (<50% of control);)",–,–,–,–,–,–,–,–,"effect on LEC proliferation (in words) (LEC [1]): inhibited preferentially LEC proliferation; LEC tube formation (tube length) (LEC [2]): 80 % of control; scored in the phenotypic Xenopus screens (Xenopus embryos; 20 μM, known antiangiogenic compounds): active; HUVEC tube formation (tube length) (HUVEC [5]): 40 % of control; effect on HUVEC tube formation (in words) (HUVEC [5]): blocked tube formation preferentially in HUVEC cultures"
"Nc1ccc2c3c(cccc13)C(=O)NC2=O [4-Amino-1,8-naphthalimide]","O (O, inactive or marginal effects (85-115% of control);)","− (−, moderate inhibition (50-85% of control):)",normal,normal,hyperplastic,–,EDE,41/42,–,41/42,"+ (+, moderate promotion (>115-150% of control).)","O (O, inactive or marginal effects (85-115% of control);)","hyperplasia of the VVN, while ISV angiogenesis occurred unaffected",lymphangiogenesis was largely suppressed,stunted,impaired,hypoplastic,–,–,–,"effect on LEC tube formation (in words) (LEC [2]): preferentially blocked tube formation in LEC rather than HUVEC cultures; Type of edema Proctodeal (Xenopus embryos; embryonic stage): 47 embryonic stages according to Nieuwkoop and Faber (NF); Type of edema Periocular (Xenopus embryos; embryonic stage, * = causing bulging eyes, # = bilateral, causing narrow-set eyes): 41/42*"
"Nc1ncnc2c1c(-c1ccc(Oc3ccccc3)cc1)cn2C1CCCC1 [7-Cyclopentyl-5-(4-phenoxy)phenyl-7H-pyrrolo[2,3-d]pyrimidin-4-ylamine]","O (O, inactive or marginal effects (85-115% of control);)","− − (− −, strong inhibition (<50% of control);)",stunted,normal,normal,45 NF,EDE,41/42,45 embryonic stages according to Nieuwkoop and Faber (NF),41/42,"O (O, inactive or marginal effects (85-115% of control);)","− − (− −, strong inhibition (<50% of control);)",interfered with angiogenic ISV sprouting but not with VVN assembly,lymphangiogenesis was strongly suppressed,impaired,impaired,hypoplastic,–,–,–,Type of edema Pronephric (Xenopus embryos; embryonic stage): 41/42
"O=c1c(-c2ccc(O)cc2)coc2cc(O)cc(O)c12 [Genistein, 5,7-Dihydroxy-3-(4-hydroxyphenyl)-4H-1-benzopyran-4-one]",–,–,stunted,normal,hyperplastic,46 NF,–,–,41/42,35/36,–,–,stunted ISVs and hyperplastic VVN,lymphatic vessels and LECs were absent,impaired,impaired,impaired,85 to 115%,50 to 85%,50 to 85%,"edema or other phenotype in compound-treated Xenopus embryos/tadpoles (in words) (Xenopus embryos; 20 μM, treatment from stage 31): edemas localized to the tail tip; Type of edema Tail tip (Xenopus embryos; embryonic stage): 35/36; activity at 10 µM (HUVEC [4]): 85 to 115%; activity at 1 µM (HUVEC [5]; [10]): 50 to 85%; activity at 1 µM (HUVEC [5]; [11]): 50 to 85%"
"COc1cc(OC)c(C=C2C(O)=Nc3ccccc32)c(OC)c1 [IC 261, 1,3-Dihydro-3-[(2,4,6-trimethoxyphenyl)methylene]-2H-indol-2-one]",–,–,impaired,hypoplastic,hypoplastic,41/42,–,35/36,41/42,35/36,–,–,interfered with blood vessel vasculogenesis and PCV assembly,–,–,–,–,50 to 85%,50 to 85%,50 to 85%,effect on LEC proliferation (in words) (LEC [1]): inhibited preferentially LEC proliferation; Type of edema Proctodeal (Xenopus embryos; embryonic stage): 41/42; Type of edema Pronephric (Xenopus embryos; embryonic stage): 41/42; activity at 10 µM (HUVEC [4]): 85 to 115%; activity at 1 µM (HUVEC [5]; [10]): 50 to 85%; activity at 1 µM (HUVEC [5]; [11]): 50 to 85%
"CCCCOC(=O)NS(=O)(=O)c1sc(CC(C)C)cc1-c1ccc(Cn2c(CC)nc3c(C)cc(C)nc32)cc1 [L-162,313]","O (O, inactive or marginal effects (85-115% of control);)","− (−, moderate inhibition (50-85% of control):)",impaired,normal,hypoplastic,–,LET,–,–,–,"+ (+, moderate promotion (>115-150% of control).)","− (−, moderate inhibition (50-85% of control):)",potent inhibitors of developmental angiogenesis,–,–,–,–,–,–,–,Lymphatic phenotype ([3]; Xenopus embryos): normal; Lethality (NF) (Xenopus embryos; [12]): 45 NF
"CC(C)c1ccc2c(c1)c(SC(C)(C)C)c(CC(C)(C)C(=O)[O-])n2Cc1ccc(Cl)cc1.[Na+] [MK-886, 3[3-tert-Butylthio-1-(4-chlorobenzyl)-5-isopropyl-1H-indol-2-yl]-2,2-dimethylpropionic acid, sodium salt]",–,–,normal,normal,hypoplastic,–,–,–,–,–,–,–,hypoplasia of the VVN,–,–,–,–,85 to 115%,50 to 85%,50 to 85%,"Phenotype class in vivo ([3]; Xenopus embryos, 20 μM, vascular phenotype): VVN hypoplasia; edema or other phenotype in compound-treated Xenopus embryos/tadpoles (in words) (Xenopus embryos; 20 μM, treatment from stage 31): causing lethality; Lethality (NF) (Xenopus embryos; [12]): 39 NF; activity at 10 µM (HUVEC [4]): 115 to 150%; activity at 1 µM (HUVEC [5]; [10]): 50 to 85%; activity at 1 µM (HUVEC [5]; [11]): 50 to 85%"
